# Experimental data taken from US11672753B2, “Composition for sebum control and pore minimizing” (AMOREPACIFIC CORPORATION, priority 2017, dated 2023).
# Experiments:
# [1] = tested on: HaCaT keratinocytes and human sebaceous gland cells; test: Evaluation of sebum production inhibitory activity (Oil Red O staining of triglycerides); format: cell-based; details: retinol 0.3 ppm (comparison); one day
# Text: In order to efficiently evaluate the sebum production inhibitory activity of the plant extracts of the present disclosure, sebaceous gland cells and keratinocytes were used together, and an environment in vitro model similar to that of human sebaceous glands of the hair was used. HaCaT (ATCC, Va., USA), keratinocytes (Cellprogen, Calif., USA) cells and human sebaceous gland cells were inoculated into a 24-well culture plate at 3.75×10^4 cells and 6.0×10^4 cells, respectively. After inoculation, it was allowed to stand for one day so that the cells adhered to the bottom of the culture plate. At this time, 10% of fetal bovine serum (JRH Bioscience, Tokyo, Japan), […] of streptomycin (the above two reagents, GIBCO, Milan, Italy) were added to DMEM medium (Invitrogen, Carlsbad, Calif.) and used as a medium. After one day, the cells were treated with 50 μM of linoleic acid, 50 μM of arachidonic acid, or 10 nM of dihydrotestosterone, as a stimulating source for causing seborrheic skin inflammation. […] After one day, the amount of triglycerides produced in the cells was measured using Oil Red O staining. […] Then, the […], and the absorbance was measured at 520 nm using a spectrophotometer for quantification. […]
# [2] = tested on: procollagen-I in human fibroblasts; test: Evaluation of procollagen-I production activity (ELISA of culture solution); format: cell-based; details: TGF-β1 0.005 ppm (comparison); two days after treatment
# Text: An enzyme-linked immunosorbent assay (ELISA) method was used to confirm the amount of procollagen-I produced by the plant extracts of the present disclosure (Youngren et al., 1999). Since procollagen-I is a substance secreted out of cells, the culture solution of the fibroblasts treated with the samples was collected and applied to the experiment as a measurement method for confirming the expression change using the cell culture solution.
# Specifically, human fibroblasts (Cell biologics, IL, USA) were inoculated into a 24-well culture plate at 2.5×10^4 cells. After inoculation, it was allowed to stand for one day so that the cells adhered to the bottom of the culture plate. At this time, 2% of low serum growth supplement (LSGS; Thermo Fisher, Mass., USA), […] of streptomycin (the above two reagents, GIBCO, Milan, Italy) were added to 106 medium (Thermo Fisher, Mass., USA) and used as a medium. Each plant extract obtained in Reference Examples 1 to 7 in the experimental group was dissolved in DMSO to make a 1% solution, and then diluted in DMEM medium, and treated to a final concentration of 50 ppm. In addition, for comparison, TGF-β1, known to have the ability to produce procollagen-I, was treated at a concentration of 0.005 ppm instead of the plant extracts. Two days after the treatment with the samples, the production of procollagen-I was measured. […]
Compound,Inhibition rate of sebum production (%) [1] [%],Production rate of Procollagen-I (%) [2] [%]
CC1=C(/C=C/C(C)=C/C=C/C(C)=C/CO)C(C)(C)CCC1 [Retinol],42.1,–
TGF-β1: known to have the ability to produce procollagen-I; comparison,–,52.1
